Read-outs that look alike come from different tables or passages of the source.

The target in this assay is T1, BRAF V600E (Homo sapiens, UniProt P15056+Q96SW2, V600E).
T1 construct: knock-in of the HiBiT tag to the endogenous BRAF V600E locus; host or cells: A375.10 (A375 clonal line, CRISPR HiBiT knock-in at the endogenous BRAF V600E locus)
As to the kind of experiment: BRAF V600E HiBiT Degradation Assay. It counts as cell-based. The procedure, abridged: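 Endogenous HiBiT knock-in on BRAF V600E in A375 cells (clone A375.10); 11-point half-log series, top 10 μM, 2, 6 or 24 h at 37° C. Lytic HiBiT luminescence, background-subtracted, normalized to DMSO; 4-parameter fit gives DC50, Emax (residual protein) and IP (inflection point).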
(With HiBiT, luminescence reflects the tagged protein that the partner subunit can reach.)

Setting [1] is: A375.10 cells, BRAF V600E, 2 hours, inflection point, read-out: HiBiT-Degradation A375.10 BRAF 2 hours IP.
Where [2] appears, read: A375.10 cells, BRAF V600E, 2 hours, read-out: HiBiT-Degradation A375.10 BRAF 2 hours DC50.
Where [3] appears, read: A375.10 cells, BRAF V600E, 2 hours, residual protein remaining, read-out: HiBiT-Degradation A375.10 BRAF 2 hours Emax.
Setting [4] is: A375.10 cells, BRAF V600E, 6 hours, inflection point, read-out: HiBiT-Degradation A375.10 BRAF 6 hours IP.
[5] abbreviates: A375.10 cells, BRAF V600E, 6 hours, read-out: HiBiT-Degradation A375.10 BRAF 6 hours DC50.
The mark [6] stands for this setting: A375.10 cells, BRAF V600E, 6 hours, residual protein remaining, read-out: HiBiT-Degradation A375.10 BRAF 6 hours Emax.
The mark [7] stands for this setting: A375.10 cells, HiBiT, BRAF V600E, 24 hours, read-out: HiBiT-Degradation A375.10 BRAF 24 hours DC50.
[8] abbreviates: A375.10 cells, HiBiT, BRAF V600E, 24 hours, read-out: HiBiT-Degradation A375.10 BRAF 24 hours Emax.
The mark [9] stands for this setting: A375.10 cells, HiBiT, BRAF V600E, 24 hours, read-out: HiBiT-Degradation A375.10 BRAF 24 hours IP.

T1 sequence (P15056 whole entry V600E): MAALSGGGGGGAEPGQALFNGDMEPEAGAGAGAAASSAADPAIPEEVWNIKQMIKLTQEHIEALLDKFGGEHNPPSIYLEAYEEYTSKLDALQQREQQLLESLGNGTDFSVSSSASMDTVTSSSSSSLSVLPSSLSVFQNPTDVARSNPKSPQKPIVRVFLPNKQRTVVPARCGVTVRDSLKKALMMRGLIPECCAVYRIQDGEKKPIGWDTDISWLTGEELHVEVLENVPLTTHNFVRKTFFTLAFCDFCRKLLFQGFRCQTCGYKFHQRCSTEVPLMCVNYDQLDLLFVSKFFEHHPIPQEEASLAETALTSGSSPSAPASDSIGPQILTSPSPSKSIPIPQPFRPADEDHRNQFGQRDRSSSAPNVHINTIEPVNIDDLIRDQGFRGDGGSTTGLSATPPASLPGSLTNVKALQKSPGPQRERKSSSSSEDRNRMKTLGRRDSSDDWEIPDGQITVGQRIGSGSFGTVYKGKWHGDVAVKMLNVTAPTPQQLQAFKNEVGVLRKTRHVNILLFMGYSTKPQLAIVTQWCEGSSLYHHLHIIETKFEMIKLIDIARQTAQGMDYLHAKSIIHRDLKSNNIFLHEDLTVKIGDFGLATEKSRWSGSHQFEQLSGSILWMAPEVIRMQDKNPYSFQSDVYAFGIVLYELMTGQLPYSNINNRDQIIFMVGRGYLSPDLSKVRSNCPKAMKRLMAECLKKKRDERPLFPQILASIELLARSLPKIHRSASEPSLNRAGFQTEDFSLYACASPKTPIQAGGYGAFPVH
T1 sequence (Q96SW2 whole entry): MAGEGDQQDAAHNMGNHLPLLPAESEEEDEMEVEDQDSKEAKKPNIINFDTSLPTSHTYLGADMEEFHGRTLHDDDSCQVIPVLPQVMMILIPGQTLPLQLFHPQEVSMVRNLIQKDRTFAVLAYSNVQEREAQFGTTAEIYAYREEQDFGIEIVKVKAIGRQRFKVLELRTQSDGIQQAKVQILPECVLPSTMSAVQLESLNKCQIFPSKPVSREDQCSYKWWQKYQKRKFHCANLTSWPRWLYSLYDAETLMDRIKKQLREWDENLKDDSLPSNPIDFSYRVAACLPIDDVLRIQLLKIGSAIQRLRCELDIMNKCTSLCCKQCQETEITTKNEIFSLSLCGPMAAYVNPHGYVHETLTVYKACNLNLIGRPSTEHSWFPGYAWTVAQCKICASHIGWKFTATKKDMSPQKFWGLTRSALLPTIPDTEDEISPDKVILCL
T1 sequence (Q16531 whole entry partner): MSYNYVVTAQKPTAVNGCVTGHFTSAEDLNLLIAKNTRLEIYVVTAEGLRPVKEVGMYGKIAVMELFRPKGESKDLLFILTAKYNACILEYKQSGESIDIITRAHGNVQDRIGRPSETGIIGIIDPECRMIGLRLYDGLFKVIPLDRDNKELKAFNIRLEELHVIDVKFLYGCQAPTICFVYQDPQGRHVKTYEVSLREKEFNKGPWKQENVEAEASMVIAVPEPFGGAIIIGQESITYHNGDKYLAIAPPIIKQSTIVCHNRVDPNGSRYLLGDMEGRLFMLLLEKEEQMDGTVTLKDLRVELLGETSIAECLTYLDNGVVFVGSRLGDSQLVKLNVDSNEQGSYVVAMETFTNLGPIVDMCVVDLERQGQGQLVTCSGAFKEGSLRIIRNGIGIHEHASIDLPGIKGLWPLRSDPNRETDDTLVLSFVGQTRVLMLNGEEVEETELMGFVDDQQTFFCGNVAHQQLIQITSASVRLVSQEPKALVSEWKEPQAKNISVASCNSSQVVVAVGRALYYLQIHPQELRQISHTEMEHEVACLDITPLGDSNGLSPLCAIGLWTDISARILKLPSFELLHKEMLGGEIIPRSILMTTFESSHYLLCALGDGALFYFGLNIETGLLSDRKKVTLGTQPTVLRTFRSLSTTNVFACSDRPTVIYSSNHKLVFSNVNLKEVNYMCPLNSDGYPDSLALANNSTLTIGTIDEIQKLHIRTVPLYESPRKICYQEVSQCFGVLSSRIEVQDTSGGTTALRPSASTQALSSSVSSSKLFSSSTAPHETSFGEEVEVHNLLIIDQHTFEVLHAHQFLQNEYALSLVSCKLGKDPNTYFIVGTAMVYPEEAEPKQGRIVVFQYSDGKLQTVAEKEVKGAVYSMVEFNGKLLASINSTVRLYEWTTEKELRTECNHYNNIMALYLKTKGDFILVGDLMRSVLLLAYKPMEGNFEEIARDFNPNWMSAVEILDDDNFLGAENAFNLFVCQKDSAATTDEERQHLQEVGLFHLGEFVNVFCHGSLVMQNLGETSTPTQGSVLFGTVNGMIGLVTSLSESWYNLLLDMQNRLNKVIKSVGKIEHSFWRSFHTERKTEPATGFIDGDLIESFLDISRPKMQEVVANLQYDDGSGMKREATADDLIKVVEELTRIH

In the case of `CO[C@@H]1CCN(S(=O)(=O)Nc2ccc(F)c(Oc3ccc4ncn(C5CC6(CCN(C7CCC(c8cc9c(cc8F)c(N8CCC(=O)NC8=O)nn9C)CC7)CC6)C5)c(=O)c4c3)c2C#N)C1` (single isomer, unassigned) [Compound 101], the DC50 reads like this: under setting [1], < 1 µM; under setting [2], < 1 µM; under setting [4], < 1 µM; under setting [5], < 1 µM; under setting [7], < 1 µM; under setting [9], < 1 µM. Besides, the Emax reads like this: under setting [3], < 50%; under setting [6], < 50%; under setting [8], < 50%.
Consider `CO[C@H]1CCN(S(=O)(=O)Nc2ccc(F)c(Oc3ccc4ncn(C5CC6(CCN(C7CCC(c8cc9c(cc8F)c(N8CCC(=O)NC8=O)nn9C)CC7)CC6)C5)c(=O)c4c3)c2C#N)C1` (single isomer, unassigned) [Compound 103], for which the DC50 runs as follows: under setting [1], < 1 µM; under setting [2], < 1 µM; under setting [4], < 1 µM; under setting [5], < 1 µM; under setting [7], < 1 µM; under setting [9], < 1 µM. The maximum response (Emax) was < 50% under setting [3], < 50% under setting [6] and < 50% under setting [8].
For `CO[C@@H]1CCN(S(=O)(=O)Nc2ccc(F)c(Oc3ccc4ncn([C@H]5COC6(CCN(C7CCC(c8ccc(NC9CCC(=O)NC9=O)cc8F)CC7)CC6)C5)c(=O)c4c3)c2C#N)C1` (single isomer, unassigned) [Compound 109], the DC50 by setting is: under setting [1], < 1 µM; under setting [2], < 1 µM; under setting [4], < 1 µM; under setting [5], < 1 µM; under setting [7], < 1 µM; under setting [9], < 1 µM. Moreover, the maximum response (Emax) under setting [3] is < 50%, the maximum response (Emax) under setting [6] was < 50% and the maximal response (Emax) under setting [8] is < 50%.
With `CCN(C)S(=O)(=O)Nc1ccc(F)c(Oc2ccc3ncc(OC4CCN(C5CCC(c6ccc(NC7CCC(=O)NC7=O)cc6F)CC5)CC4)nc3c2)c1C#N` (single isomer, unassigned) [Compound 110, 7-[2-cyano-3-[[ethyl(methyl)sulfamoyl]amino]-6-fluoro-phenoxy]-2-[[1-[4-[4-[(2,6-dioxo-3-piperidyl)amino]-2-fluoro-phenyl]cyclohexyl]-4-piperidyl]oxy]quinoxaline], the DC50 was < 1 µM under setting [1]; < 1 µM under setting [2]; < 1 µM under setting [4]; < 1 µM under setting [5]; < 1 µM under setting [7]; < 1 µM under setting [9]. The maximum response (Emax) by setting is: under setting [3], 50 to 90%; under setting [6], < 50%; under setting [8], < 50%.
`Cn1nc(N2CCC(=O)NC2=O)c2cc(F)c(C3CCC(N4CCC5(CC4)C[C@@H](n4cnc6ccc(Oc7c(F)ccc(NS(=O)(=O)C8CCCC8)c7C#N)cc6c4=O)CO5)CC3)cc21` (single isomer, unassigned) [Compound 113]: the DC50 under setting [1] was < 1 µM; the DC50 under setting [2] is < 1 µM; the DC50 under setting [4] is < 1 µM; the DC50 under setting [5] was < 1 µM; the DC50 under setting [7] is < 1 µM; the DC50 under setting [9] is < 1 µM. Also, the Emax under setting [3] is < 50%, the Emax under setting [6] is < 50% and the maximum response (Emax) under setting [8] is < 50%.
As for `CO[C@H]1CCN(S(=O)(=O)Nc2ccc(F)c(Oc3ccc4ncn([C@H]5COC6(CCN(C7CCC(c8cc9c(cc8F)c(N8CCC(=O)NC8=O)nn9C)CC7)CC6)C5)c(=O)c4c3)c2C#N)C1` (single isomer, unassigned) [Compound 115], the DC50 reads like this: under setting [1], < 1 µM; under setting [2], < 1 µM; under setting [4], < 1 µM; under setting [5], < 1 µM; under setting [7], < 1 µM; under setting [9], < 1 µM. The maximum response (Emax) is, setting by setting: under setting [3], < 50%; under setting [6], < 50%; under setting [8], < 50%.
Consider `CCN(C)S(=O)(=O)Nc1ccc(F)c(Oc2ccc3ncc(OCC4CCN(C5CCC(c6cc7c(cc6F)c(N6CCC(=O)NC6=O)nn7C)CC5)CC4)nc3c2)c1C#N` (single isomer, unassigned) [Compound 118, 7-[2-cyano-3-[[ethyl(methyl)sulfamoyl]amino]-6-fluoro-phenoxy]-2-[[1-[4-[3-(2,4-dioxohexahydropyrimidin-1-yl)-5-fluoro-1-methyl-indazol-6-yl]cyclohexyl]-4-piperidyl]methoxy]quinoxaline], for which the DC50 by setting is: under setting [1], < 1 µM; under setting [2], < 1 µM; under setting [4], < 1 µM; under setting [5], < 1 µM; under setting [7], < 1 µM; under setting [9], < 1 µM. Also, the Emax reads like this: under setting [6], < 50%; under setting [8], < 50%; (read-out: HiBiT-Degradation A375.10 BRAF 2 hours Emax, A375.10 cells, BRAF V600E, 2 hours, residual protein remaining) 50 to 90%.
Consider `Cn1nc(N2CCC(=O)NC2=O)c2cc(F)c(C3CCC(N4CCC5(CC4)C[C@@H](n4cnc6ccc(Oc7c(F)ccc(NS(=O)(=O)N8CC[C@@H](F)C8)c7C#N)cc6c4=O)CO5)CC3)cc21` (single isomer, unassigned) [Compound 121], for which the DC50 reads like this: under setting [1], < 1 µM; under setting [2], < 1 µM; under setting [4], < 1 µM; under setting [5], < 1 µM; under setting [7], < 1 µM; under setting [9], < 1 µM. The Emax by setting is: under setting [3], < 50%; under setting [6], < 50%; under setting [8], < 50%.
Consider `Cn1nc(N2CCC(=O)NC2=O)c2cc(F)c(C3CCC(N4CCC5(CC4)CC(n4cnc6ccc(Oc7c(F)ccc(NS(=O)(=O)N8CC[C@@H](F)C8)c7C#N)cc6c4=O)C5)CC3)cc21` (single isomer, unassigned) [Compound 122], for which the DC50 is, setting by setting: under setting [1], < 1 µM; under setting [2], < 1 µM; under setting [4], < 1 µM; under setting [5], < 1 µM; under setting [7], < 1 µM; under setting [9], < 1 µM. For the same molecule, the Emax reads like this: under setting [3], < 50%; under setting [6], < 50%; under setting [8], < 50%.
For the molecule `CCN(C)S(=O)(=O)Nc1ccc(F)c(Oc2ccc3ncn(CC4CCN(C5CCC(c6cc7c(cc6F)c(N6CCC(=O)NC6=O)nn7C)CC5)CC4)c(=O)c3c2)c1C#N` (single isomer, unassigned) [Compound 126, 6-[2-cyano-3-[[ethyl(methyl)sulfamoyl]amino]-6-fluoro-phenoxy]-3-[[1-[4-[3-(2,4-dioxohexahydropyrimidin-1-yl)-5-fluoro-1-methyl-indazol-6-yl]cyclohexyl]-4-piperidyl]methyl]-4-oxo-quinazoline], the DC50 is < 1 µM under setting [1]; < 1 µM under setting [2]; < 1 µM under setting [4]; < 1 µM under setting [5]; < 1 µM under setting [7]; < 1 µM under setting [9]. The maximal effect (Emax) by setting is: under setting [3], < 50%; under setting [6], < 50%; under setting [8], < 50%.

In general, Emax refers to the size of the effect at its maximum, as opposed to the concentration needed.

The values above are taken from patent publication US20260297060A1, “COMPOUNDS FOR THE DEGRADATION OF MUTANT BRAF” (C4 THERAPEUTICS, INC., priority 2023, published 2026).
